Assay results taken from patent US20250235413A1, “MODIFIED FORMS OF AMBROXOL FOR THERAPEUTIC USE” (Zywie, LLC, priority 2021, published 2025).

Tests used:
male BDF1 mice = assay: Lifespan study in mice fed compound in chow; assay type: in vivo, mouse; conditions: 50 mg/kg daily as chow supplement, vs control (FIG. 3)
Description: Group 1 represents control animals that were not administered ambroxol; and Group 2 represents animals administered 50 mg/kg (body weight) of ambroxol daily as a chow supplement, starting at 2 months of age.
Weaned male BDF1 mice raised from pups, housed 1-4 animals per cage and fed Teklad 7013 NIH-31 rodent chow and water ad libitum, at 2 months of age, are divided into two roughly equal groups of 22-25 animals. One group continues to be fed the Teklad chow as before (control); the other group is switched to Teklad chow formulated with compound 2 at 300 mg per kg of chow. This formulation was designed, based on the average ad libitum chow consumption of an adult male BDF1 mouse, to deliver 50 mg/kg/day (based on body mass) to each mouse in the treated group. Mice are maintained on this diet until they die naturally or until they reach 16 months of age, at which time the experiment ends. During the course of the experiment, all mice are periodically removed from their cages and handled in the course of subjecting them to various sensorimotor, cognitive, and/or behavioral tests.
Group 1 represents control animals that were not administered ambroxol; Group 2 represents animals administered 50 mg/kg of ambroxol daily as a chow supplement, starting at 2 months of age.

mice = assay: Cognitive acuity test (novel place recognition) in mice at 7 months; assay type: in vivo, mouse
Source text: This is a cognitive test to measure short-term working memory, involving recognition of a familiar object found in an unfamiliar place (see Magen et al., Eur J Neurosci 35:870-882, 2012; Magen and Chesselet, J Parkinson's Disease 1:217-227, 2011). A Discrimination Index (DI)=(tnovel−tfamiliar)/(tnovel+tfamiliar) was used to assess the time spent exploring near the object in a novel place (“tnovel”) vs. the total exploration time overall. Discrimination Index scores greater than zero are considered to indicate good place recognition memory.
Three groups of mice, with at least 13 mice in each group, are given a cognitive acuity test at 7 months. The three groups of mice are: “High Dose” Group (150 mg/kg/day of compound 2), “Low Dose” (50 mg/kg/day of compound 2) Group, and a Control Group (no compound 2).
The dosage results are substantially lower than doses previously observed to effectively promote GCase chaperoning activity in mice (e.g., Migdalska-Richards et al., Ann Neurol 80:766-775, 2016).

[1] = Metabolic stability in human liver microsomes; assay type: in vitro ADME; conditions: human liver microsomes 1 mg/mL protein, 1 μM compound, 37° C., NADPH-regenerating system; for half-life at 1 μM: 0-120 min, read-out: In vitro elimination half-life t1/2; for microsomal CLint at 1 μM: read-out: In vitro intrinsic clearance CLint-microsomes
Description: Study design—Test compounds (ambroxol and deuterated analogs) were dissolved in dimethylsulfoxide (DMSO) to prepare 1 mM stock solutions. The compounds were added to preparations of human liver microsomes (200 μL per incubation at a 1 mg/mL protein concentration) such that the final compound concentration was 1 μM. The samples were incubated at 37° C. in the presence of a reduced nicotinamide adenine dinucleotide phosphate (NADPH)-regenerating system (NADP, 1 mM, pH 7.4; glucose-6-phosphate, 5 mM, pH 7.4; glucose-6-phosphate dehydrogenase, 1 unit/mL)). A positive control (midazolam, 1 μM, 0.1 mg/mL protein) was incubated concurrently to ensure the microsome preparation was performing as expected. Samples were obtained at t=0, 30, 60, and 120 min and quenched by addition of acetonitrile.
Quenched samples were analyzed by liquid chromatography coupled to tandem mass spectrometry detection (LC/MS-MS). The concentration of the test compounds at each time point were converted to percent remaining relative to the concentration of the compound at time t=0 (which serves as the 100% value). All data points were included in data processing. The rate constant of elimination (kel, min^−1) of each test compound was determined from the time course of disappearance of the parent compound based on fitting the experimental data to a single exponential decay formula (At=Aoe^−kelt, where At is the % remaining at time t, Ao is 100%, kel is the elimination rate constant, and t is time). The in vitro half-life (t1/2) was determined from kel based on the formula: t1/2=ln(2)/kel. The rate constant of elimination was also used to calculate the in vitro intrinsic clearance CLint-microsomes (μL/min/mg protein).

| Compound | Lifespan (male BDF1 mice; starting at 2 months of age) | Healthspan (health of surviving animals when sacrificed) (male BDF1 mice) | Cognitive acuity, Low Dose Group (mice; 50 mg/kg/day) | Cognitive acuity, High Dose Group (mice; 150 mg/kg/day) | Cognitive acuity (mice; High Dose and Low Dose vs Control (FIG. 4)) | half-life at 1 μM [1] [h] | microsomal CLint at 1 μM [1] [µL/min/mg] |
| --- | --- | --- | --- | --- | --- | --- | --- |
| Nc1c(Br)cc(Br)cc1CN[C@H]1CC[C@H](O)CC1 [ambroxol, trans-4-((2-amino-3,5-dibromobenzyl)amino)cyclohexanol] | able to increase lifespan | healthspan was extended | results in between the Control Group and the “High Dose” Group | best cognitive acuity results | dose-related improvement | 1.01 | 11.4 |
| [2H]C([2H])(N[C@H]1CC[C@H](O)CC1)c1cc(Br)cc(Br)c1N [ZW-001] |  |  |  |  |  | 1.65 | 7 |
